The values that follow come from US6335339B1, “Triazine antiviral compounds” (Scriptgen Pharmaceuticals, Inc., priority 1998, dated 2002).

The subject of one data set is HBV. Description: antiviral assay in 2.2.15 cells producing HBV (virion DNA dot blot). In kind it is cell-based, Hepatitis B virus. The following applies: extra-cellular virus reduced by 50%; 2.2.15 cells, 9 days treatment; read-out: Antiviral EC50. The text has this: Several cell lines and cell culture assays have been developed to identify potential therapeutics effective against chronic HBV infection. One of these cell lines, 2.2.15, has been used in a standardized assay that has repeatedly proven to be an accurate model of chronic cellular HBV replication and a predictive model of antiviral response for chronic hepadnaviral infection in vivo. 2.2.15 cells contain copies of the complete HBV genome integrated into the cell's genome, and 2.2.15 cells are not susceptible to infection by HBV. (Sells, M. A. et al., J. Virol. 62 (8): 2836-2844 (1988)). These cells express HBV genes producing complete HBV particles capable of infecting chimpanzees (Acs, G. et al., Proc. Natl. Acad. Sci. USA 84 (13): 4641-4644 (1987)). Briefly, 2.2.15 cells are cultured and pretreated with a test compound for about 9 days, at which point the media are harvested and subjected to dot-blot hybridization to detect HBV virion DNA.
The antiviral activity of the compounds of the present invention is measured by the methods described in Korba and Gering, Antiviral Res. 19: 55-70 (1992).
This assay format is well suited to the screening of test compounds for potential antiviral activity. The assay provides a threshold assessment of antiviral activity by measuring (i) the levels of HBV virion release from the cells and (ii) cytotoxicity. Two rows of cells were used for each compound, and 4 rows for the assay controls (two for untreated, and two for positive antiviral control, e.g., 3TC). After incubating in the presence of test compound for 9 days, the media were harvested, transferred to 96-well U-bottom plates, and centrifuged. The supernatants were transferred to tubes for dot blot hybridization analysis of HBV virion DNA. The medium was aspirated off of the toxicity plates and discarded. Toxicity plates were then incubated with neutral red dye (MTT can also be used if preferred), washed with DPBS, developed with an acetic acid-ethanol solution, and assayed in a plate reader.
1. 2.2.15 cells were seeded into 96-well, flat bottom tissue culture plates as described above. Duplicate plates were used for the antiviral treatments for each test compound (up to 8 compounds per pair of plates); after three to four days, cells were confluent and medium was yellow in color; the medium was removed and replaced with 100 μl RP2 24 hours before the beginning of drug treatment.
i) For each compound, a total of 4 concentrations were examined; this required 9 sets of 4 sterile, 1.1 ml minitubes (36 tubes per compound). Into the first tube of each set, sufficient compound was aliquoted to make up 700 μl (for 10-fold dilution series) or 980 μl (for 3.3-fold dilution series) of the highest test concentration; the other tubes were left empty.
i) For a 10-fold dilution series: to the first (compound containing) tube was added 700 μl (175 μl×4). 630 μl (210 μl×3) RP2 culture medium was added to the remaining 3 tubes. The first tube was mixed by pipeting up and down with a pipetman (a multichannel pipetman permits the simultaneous processing of multiple compounds). 70 μl of test compound-containing medium were serially transferred from the first tube to the other 3 tubes, taking care to thoroughly mix each tube before transferring medium;
b) 100 μl of each dilution of every compound was added to each of 6 wells (3 wells per plate) using the configuration listed below as an example. The lowest concentration was added first, and the same tips were used to add the higher concentrations. The untreated cells received 100 μl RP2 per well (untreated cells have to be carried on only one pair of the antiviral assay plates).
c) Treatments were repeated daily for 9 days. For the last day of treatment, and additional 200 μl RP2 were added to each well of the antiviral assay plates after the wells are treated with the test compounds (a total of 300 μl medium per well).
6. […]

The next data set has as its system 2.2.15 cells. Description: neutral red dye uptake cytotoxicity. In kind it is cell-based. The following applies: 9 days treatment, read-out: 50% Cell Death CC50. Here is the method: Further, the antiviral effect of any compound must be measured against its toxicity. Cytotoxicity is measured by the neutral red uptake method using the same cells used for antiviral activity.
2b. Compounds were prepared for toxicity treatment as follows: For each compound, a total of 4 concentrations were examined. This required 9 sets of 4 sterile, 1.1 ml minitubes (36 tubes per compound). Into the first tube of each set, sufficient compound was aliquoted to make up 465 μl of the highest test concentration. The other tubes were left empty. The tubes were covered with the rack lids, and stored at −20° C. or at an appropriate temperature. Tubes for the last day of treatment for toxicity testing contain the same amount of compound as used the previous days (not 3xas for the antiviral assays).
3b. The cytotoxicity of test compounds was analyzed in a 3.3-fold dilution series as follows. […] (155 μl×3) of RP2 were added to the first tube (containing the aliquot of compound) and 310 μL (155 μl×2) RP2 to each of the 3 remaining tubes. 150 μl of test compound-containing medium were serially transferred from the first tube to the other 3 tubes.
5. A single plate was used for the toxicity treatments for each test compound (up to 7 compounds per plates since the top row were reserved for untreated cells on every toxicity plate). To initiate the treatments, the culture medium was removed, and 100 μl of each dilution of every compound were added to each of 3 wells using a configuration similar to that shown above for the antiviral treatments. The untreated cells received 100 μl RP2 per well. Treatment was repeated daily for 9 days.
The antiviral effect of any compound was evaluated relative to its toxicity. Cells were seeded and treated following the guidelines above, after which a neutral red dye uptake assay was performed to assess toxicity as described below. Other assays of cytotoxicity (e.g., MTT) can be substituted for the procedure described below. Note that this procedure assesses toxicity under culture and treatment conditions which are identical to those used for the antiviral analyses, thereby permitting a determination as to whether the reduction in virus production due to a specific antiviral effect or due to a cytotoxic effect on the host cell. Since the cultures, by necessity, are at confluence, the cytotoxic effects of the test compounds will probably be reduced relative to the cytotoxic effects that would be expected for actively dividing cells.
1. Cultures were treated with test compounds on the designated toxicity plates as described above.
2. The culture medium was carefully removed 24 hours following the 9th day of treatment. The monolayer was fully removed in the top left three wells (row A, col. 1-3). These wells were used as “blanks” for the plate reader.
3. 100 μl DPBS (containing 0.01% neutral red dye) were added to each well, including the empty wells, and Incubated in the tissue culture incubator for 30 minutes.
4. The dye was removed carefully and gently, using a multichannel pipetman since the monolayers can become fragile after incubation with neutral red dye. 200 μl DPBS were added to all the wells taking care not to displace the monolayers. The DPBS was removed and 100 μl 50% EtOH/1% glacial acetic acid (in H2O) were added to each well. The plates were mixed for 15 minutes on an orbital platform shaker (120-150 RPM) to allow for full extraction of the dye from the cells.
5. Optical absorbance at 510 nm was read in an ELISA type plate reader, using the 3 empty wells to set the background. An average absorbance value was calculated for the 9 untreated cultures on a plate, and the absorbance of dye for the treated cultures on the same plate was expressed as a percentage of that value. This procedure was repeated for each individual plate. […]

A word on the EC50: it is the concentration needed to bring the measured effect to its halfway point. By CC50 is commonly meant the concentration giving 50% cytotoxicity.

For `O=[N+]([O-])c1ccc(Nc2nc(NN=Cc3ccc(Br)cc3)nc(N3CCCCCC3)n2)cc1` [Compound 117], the EC50 in the data set on HBV stood at 4.2 µM. Further, in the data set with 2.2.15 cells, the CC50 was above 300 µM.
As for `FC(F)(F)c1cccc(Nc2nc(NN=Cc3ccc(Cl)cc3)nc(N3CCOCC3)n2)c1` [Compound 120], in the data set with HBV, the EC50 is above 100 µM. In addition, the CC50 in the data set on 2.2.15 cells was 45 µM.
With `C(=Cc1ccccc1)C=NNc1nc(Nc2ccccc2)nc(Nc2ccccc2)n1` [Compound 125], in the data set on HBV, the EC50 amounted to 3.9 µM. In addition, the CC50 in the data set with 2.2.15 cells was 265 µM.
Regarding `COc1ccc(Nc2nc(NN=Cc3ccc(O)cc3O)nc(Nc3ccccc3)n2)cc1` [Compound 158], in the data set on HBV, the EC50 amounted to 42 µM. Also, in the data set with 2.2.15 cells, the CC50 is 112 µM.
Regarding `Cc1ccc(Nc2nc(NN=Cc3cc(I)ccc3O)nc(Nc3ccccc3)n2)c(C)c1` [Compound 159], the EC50 in the data set with HBV turned out to be 0.498 µM. Further, the CC50 with 2.2.15 cells is 101 µM.
As to `Oc1ccc(Cl)cc1C=NNc1nc(Nc2ccc3ccccc3c2)nc(N2CCOCC2)n1` [Compound 160], in the data set on HBV, the EC50 is 0.42 µM. Moreover, in the data set on 2.2.15 cells, the half-maximal cytotoxic concentration (CC50) is above 300 µM.
As to `COc1c(C=NNc2nc(NCc3ccccc3)nc(Nc3ccccc3)n2)cccc1[N+](=O)[O-]` [Compound 162], the EC50 with HBV was 0.923 µM. For the same compound, the half-maximal cytotoxic concentration (CC50) with 2.2.15 cells came to 436 µM.
In the case of `Brc1cccc(C=NNc2nc(Nc3ccccc3)nc(N3CCOCC3)n2)c1` [Compound 163], in the data set on HBV, the EC50 was determined as 0.958 µM. The CC50 with 2.2.15 cells was found to be 150 µM.
Turning to `COc1ccc(Nc2nc(NN=Cc3ccc(O)cc3O)nc(N3CCOCC3)n2)cc1` [Compound 164], in the data set on HBV, the EC50 was found to be 0.863 µM. In addition, the CC50 in the data set on 2.2.15 cells is 201 µM.
Take `COc1ccc(C=NNc2nc(NCc3ccccc3)nc(Nc3ccccc3)n2)cc1` [Compound 165]: the EC50 with HBV is 3.8 µM. Further, the half-maximal cytotoxic concentration (CC50) with 2.2.15 cells is above 300 µM.
The like results for `Ic1cccc(C=NNc2nc(Nc3ccc4ccccc4c3)nc(N3CCOCC3)n2)c1` [Compound 166] were, in that order, 1.4 µM and 252 µM.
As for `Oc1ccc2ccccc2c1C=NNc1nc(Nc2cccc3ccccc23)nc(N2CCOCC2)n1` [Compound 167], in the data set on HBV, the EC50 amounted to 1.7 µM. In the data set on 2.2.15 cells, the CC50 amounted to 161 µM.
Consider `COc1c(C=NNc2nc(Nc3ccccc3)nc(Nc3ccccc3)n2)ccc(Br)c1O` [Compound 168], for which the EC50 with HBV came out at 0.7 µM. For the same compound, the CC50 with 2.2.15 cells is above 300 µM.
For `Oc1ccccc1C=NNc1nc(Nc2ccccc2)nc(N2CCCCC2)n1` [Compound 169], in that order: 2.5 µM and above 300 µM.
In the case of `COc1cccc(C=NNc2nc(Nc3ccccc3)nc(N3CCCC3)n2)c1O` [Compound 170], the EC50 in the data set with HBV was determined as 4 µM. In the data set on 2.2.15 cells, the CC50 turned out to be 499 µM.
In the case of `CCN(CC)c1nc(NN=Cc2c(O)ccc3ccccc23)nc(Nc2ccccc2)n1` [Compound 171], the concentration giving a half-maximal response (EC50) in the data set with HBV worked out at 5 µM. Moreover, the CC50 in the data set on 2.2.15 cells is 174 µM.
With `Cc1cccc(C(=O)Oc2ccc(C=NNc3nc(N4CCCCC4)nc(N4CCCCC4)n3)cc2)c1` [Compound 181], the EC50 in the data set on HBV stood at 6 µM. Besides, in the data set on 2.2.15 cells, the half-maximal cytotoxic concentration (CC50) was above 300 µM.
As for `CC(=NNc1nc(NCc2ccccc2)nc(Nc2ccccc2)n1)c1ccc([N+](=O)[O-])cc1` [Compound 182], the half-maximal effective concentration (EC50) with HBV is 54 µM. Further, in the data set on 2.2.15 cells, the CC50 was above 300 µM.
Take `CC(=NNc1nc(Nc2ccccc2)nc(N2CCCC2)n1)c1ccc([N+](=O)[O-])cc1` [Compound 183]: the EC50 in the data set on HBV is 52 µM. Besides, the half-maximal cytotoxic concentration (CC50) in the data set with 2.2.15 cells was above 300 µM.
With `Cc1ccc(Nc2nc(NCc3ccccc3)nc(NN=Cc3ccc(F)cc3F)n2)cc1C` [Compound 191], the EC50 in the data set with HBV was above 100 µM. Besides, the CC50 in the data set on 2.2.15 cells came out at 836 µM.
`CN(C)c1nc(NCc2ccccc2)nc(NCc2cccs2)n1` [Compound 192]: in the data set with HBV, the EC50 is above 100 µM. Further, the CC50 with 2.2.15 cells came to 739 µM.
For `COc1c(C=NNc2nc(N3CCCC3)nc(N3CCOCC3)n2)cccc1[N+](=O)[O-]` [Compound 193], in that order: above 100 µM and 666 µM.
For `Cc1ccc(Nc2nc(NCc3ccccc3)nc(Nc3ccc([N+](=O)[O-])cc3)n2)cc1C` [Compound 194], in the data set with HBV, the EC50 was above 100 µM. For the same compound, the CC50 in the data set on 2.2.15 cells was 626 µM.
